Results as given in patent US5070096A, “Quinolinoxy phenylsulphonamides” (Bayer Aktiengesellschaft, priority 1986, dated 1991).

Columns and labels:
mouse ear inflammation = assay: Mouse ear inflammation test; type: in vivo
Protocol: (§1) The liberation of leukotriene B4 (LTB4) in polymorphonuclear rat leukocytes (PMN) after addition of substances and calcium ionophore was determined by means of reverse phase HPLC according to Sorgeat, P. et al, Proc. Nat. Acad. Sci. 76, 2148-2152 (1979) as a measure of the lipoxygenase inhibition. The in vivo activity of the compounds was determined using the mouse ear inflammation model according to Young, J. M. et al., J. of Investigative Dermatology 82, 367-371 (1984).

lipoxygenase = assay: Inhibition of lipoxygenase (liberation of leukotriene B4 in polymorphonuclear rat leukocytes, calcium ionophore, HPLC); type: cell-based; conditions: LTB4 liberation in rat PMN
Protocol: as §1

| SMILES | IC50 value, inhibition of lipoxygenase (lipoxygenase) [µg/mL] | Inhibition of inflammation, % (mouse ear inflammation; 100 mg/kg per os) [%] | Inhibition of inflammation, % (mouse ear inflammation; 2 mg/ear topical) [%] |
| --- | --- | --- | --- |
| O=S(=O)(Nc1ccc(Oc2cccc3cccnc23)cc1)c1cccc(C(F)(F)F)c1 [Example 44, N-[4-(quinolin-8-yloxy)phenyl]-3-trifluoromethylbenzenesulphonamide] | – | 38 | – |
| O=S(=O)(Nc1ccc(Oc2ccc3cccnc3c2)cc1)c1ccc(Cl)cc1 [Example 53, N-[4-(quinolin-7-yloxy)phenyl]-4-chlorobenzenesulphonamide] | 0.088 | – | – |
| O=S(=O)(Nc1ccc(Oc2ccc3cccnc3c2)cc1)c1cccc(C(F)(F)F)c1 [Example 54, N-[4-(quinolin-7-yloxy)phenyl]-3-trifluoromethylbenzenesulphonamide] | 0.17 | – | – |
| O=S(=O)(Nc1ccc(Oc2ccc3cccnc3c2)cc1)c1ccc(F)cc1 [Example 57, N-[4-(quinolin-7-yloxy)phenyl]-4-fluorobenzenesulphonamide] | 0.033 | – | – |
| Cc1ccnc2c(Oc3ccc(NS(=O)(=O)c4ccc(Cl)cc4)cc3)cccc12 [Example 58, N-[4-(4-methylquinolin-8-yloxy)phenyl]-4-chlorobenzenesulphonamide] | – | – | 58 |
| O=S(=O)(Nc1ccc(OCc2ccc3ccccc3n2)cc1)c1cccc(C(F)(F)F)c1 [Example 74, N-[4-(quinolin-2-yl-methyloxy)phenyl]-3-trifluoromethylbenzenesulphonamide] | 0.1 | – | – |

Further lines, with some results ahead:

| IC50 value, inhibition of lipoxygenase (lipoxygenase) [µg/mL] | SMILES | Inhibition of inflammation, % (mouse ear inflammation; 100 mg/kg per os) [%] | Inhibition of inflammation, % (mouse ear inflammation; 2 mg/ear topical) [%] |
| --- | --- | --- | --- |
| 0.1 | O=S(=O)(Nc1ccc(OCc2ccc3ccccc3n2)cc1)c1ccc(Cl)cc1 [Example 73, N-[4-(quinolin-2-yl-methyloxy)phenyl]-4-chlorobenzenesulphonamide] | – | – |
| 0.057 | CCCCS(=O)(=O)Nc1ccc(OCc2ccc3ccccc3n2)cc1 [Example 75, N-[4-(quinolin-2-yl-methyloxy)phenyl]butanesulphonamide] | 46 | 39 |
| 0.046 | O=S(=O)(CCCCl)Nc1ccc(OCc2ccc3ccccc3n2)cc1 [Example 76, N-[4-(quinolin-2-yl-methyloxy)phenyl]-3-chloropropanesulphonamide] | 37 | – |
| 0.074 | CCCC(C)S(=O)(=O)Nc1ccc(OCc2ccc3ccccc3n2)cc1 (centres unmarked) [Example 78, N-[4-(quinolin-2-yl-methyloxy)phenyl]-1-methylbutanesulphonamide] | – | 65 |
